Where two headings read alike, the source gives them in different places.

In assay [1] the target is Myeloid Cell Leukemia 1(Mcl-1) (Homo sapiens (Human), UniProt Q07820). Kind of assay: Terbium labeled Mcl-1 HTRF binding assay with Cy5-labeled BIM BH3 peptide. The method, then:
Terbium labeled Myeloid Cell Leukemia 1(Mcl-1) homogeneous time-resolved fluorescence (HTRF) binding assay utilizing the BIM BH3 peptide (H2N-(C/Cy5Mal) WIAQELRRIGDEFN-OH) as the binding partner for Mcl-1.
This assay evaluated inhibition of the BH3 domain: Mcl-1 interaction by measuring the displacement of Cy5-labeled BIM BH3 peptide (H2N—(C/Cy5Mal) WIAQELRRIGDEFN-OH) in the HTRF assay format.
The following assay and stock buffers were prepared for use in the assay: (a) Stock buffer: 10 mM Tris-HCl, pH=7.5+150 mM NaCl, filtered, sterilized, and stored at 4° C.; and (b) 1× assay buffer, where the following ingredients were added fresh to stock buffer: 2 mM dithiothreitol (DTT), 0.0025% Tween-20, 0.1 mg/mL bovine serum albumin (BSA). The 1×Tb-Mcl-1+Cy5 Bim peptide solution was prepared by diluting the protein stock solution using the 1× assay buffer (b) to 25 pM Tb-Mcl-1 and 8 nM Cy5 Bim peptide.
Using the Acoustic ECHO, 100 nL of 100× test compound(s) were dispensed into individual wells of a white 384-well Perkin Elmer Proxiplate, for a final compound concentration of lx and final DMSO concentration of 1%. Inhibitor control and neutral control (NC, 100 nL of 100% DMSO) were stamped into columns 23 and 24 of assay plate. Into each well of the plate was then dispensed 10 μL of the 1×Tb-Mcl-1+Cy5 Bim peptide solution. The plate was centrifuged with a cover plate at 1000 rpm for 1 minute, then incubated for 60 minutes at room temperature with plates covered.
The TR-FRET signal was read on an BMG PHERAStar FSX MicroPlate Reader at room temperature using the HTRF optic module (HTRF: excitation: 337 nm, light source: laser, emission A: 665 nm, emission B: 620 nm, integration start: 60 μs, integration time: […]).
The BMG PHERAStar FSX MicroPlate Reader was used to measure fluorescence intensity at two emission wavelengths—665 nm and 620 nm—and report relative fluorescence units (RFU) for both emissions, as well as a ratio of the emissions (665 nm/620 nm)*10,000. The RFU values were normalized to percent inhibition as follows:
% inhibition=((NC−IC)−(compound−IC))/(NC−IC))*100
where IC (inhibitor control, low signal)=mean signal of 1×Tb-MCl-1+Cy5 Bim peptide+inhibitor control or 100% inhibition of Mcl-1; NC (neutral control, high signal)=mean signal 1×Tb-MCl-1+Cy5 Bim peptide with DMSO only or 0% inhibition An 11-point dose response curve was generated to determine IC50 values (using GenData) based on the following equation:
Y=Bottom+(Top−Bottom)/(1+10^((IogIC50−X)*HillSlope))
where Y=% inhibition in the presence of X inhibitor concentration; Top=100% inhibition derived from the IC (mean signal of Mcl-1+inhibitor control); Bottom=0% inhibition derived from the NC (mean signal of Mcl-1+DMSO); Hillslope=Hill coefficient; and IC50=concentration of compound with 50% inhibition in relation to top/neutral control (NC).
In this assay [L]=8 nM and Kd=10 nM
(Time-resolved FRET reads energy transfer from a long-lived donor to a nearby acceptor.)

Assay [2] relates to MOLP-8 human multiple myeloma cell line. Kind of assay: Caspase-Glo 3/7 assay in MOLP-8 cells. The class given is cell-based. Conditions: Caspase-Glo 3/7, 2 hours incubation, averaged over all runs on all batches, read-out: MOLP8 AC50. An excerpt: MCL-1 is a regulator of apoptosis and is highly over-expressed in tumor cells that escape cell death. The assay evaluates the cellular potency of small-molecule compounds targeting regulators of the apoptosis pathway, primarily MCL-1, Bfl-1, Bcl-2, and other proteins of the Bcl-2 family. Protein-protein inhibitors disrupting the interaction of anti-apoptotic regulators with BH3-domain proteins initiate apoptosis.
The Caspase-Glo® 3/7 Assay is a luminescent assay that measures caspase-3 and -7 activities in purified enzyme preparations or cultures of adherent or suspension cells. The assay provides a proluminescent caspase-3/7 substrate, which contains the tetrapeptide sequence DEVD. This substrate is cleaved to release aminoluciferin, a substrate of luciferase used in the production of light. Addition of the single Caspase-Glo® 3/7 Reagent in an “add-mix-measure” format results in cell lysis, followed by caspase cleavage of the substrate and generation of a “glow-type” luminescent signal.
This assay uses the MOLP-8 human multiple myeloma cell line, which is sensitive to MCL-1 inhibition.
Cell cultures were maintained between 0.2 and 2.0×10^6 cells/mL. The cells were harvested by collection in 50 mL conical tubes. The cells were then pelleted at 500 g for 5 mins before removing supernatant and resuspension in fresh pre-warmed culture medium. The cells were counted and diluted as needed.
The assay reagent was prepared by transferring the buffer solution to the substrate vial and mixing. The solution may be stored for up to 1 week at 4° C. with negligible loss of signal.
Compounds were delivered in assay-ready plates (Proxiplate) and stored at −20° C. Assays always include 1 reference compound plate containing reference compounds. The plates were spotted with 40 nL of compounds (0.5% DMSO final in cells; serial dilution; 30 μM highest conc. 1/3 dilution, 10 doses, duplicates). The compounds were used at room temperature and 4 μL of pre-warmed media was added to all wells except column 2 and 23. The negative control was prepared by adding 1% DMSO in media. The positive control was prepared by adding the appropriate positive control compound in final concentration of 60 μM in media. The plate was prepared by adding 4 μL negative control to column 23, 4 μL positive control to column 2 and 4 μL cell suspension to all wells in the plate. The plate with cells was then incubated at 37° C. for 2 hours. The assay signal reagent is the Caspase-Glo solution described above, and 8 μL was added to all wells. The plates were then sealed and measured after 30 minutes.
The activity of a test compound was calculated as percent change in apoptosis induction as follows: […]

[3] abbreviates: first table, [L]=8 nM, Kd=10 nM, before recalibration of the equipment.
[4] abbreviates: obtained after recalibration of the equipment, averaged values over several runs.

Myeloid Cell Leukemia 1(Mcl-1), sequence (Q07820 whole entry): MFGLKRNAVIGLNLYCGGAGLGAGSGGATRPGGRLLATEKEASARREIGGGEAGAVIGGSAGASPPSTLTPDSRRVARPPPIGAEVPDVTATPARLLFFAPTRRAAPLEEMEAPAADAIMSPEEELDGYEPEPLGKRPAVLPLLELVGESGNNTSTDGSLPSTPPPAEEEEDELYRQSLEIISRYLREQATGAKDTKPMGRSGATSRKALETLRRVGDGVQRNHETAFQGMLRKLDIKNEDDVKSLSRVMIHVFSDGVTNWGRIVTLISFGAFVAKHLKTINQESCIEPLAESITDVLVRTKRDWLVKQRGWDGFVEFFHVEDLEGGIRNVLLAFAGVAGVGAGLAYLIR

As to `COCC1/C=C/C[C@H](C)[C@@H](C)S(=O)(=O)NC(=O)c2ccc3c(c2)N(C[C@@H]2CCCN12)C[C@@]1(CCCc2cc(Cl)ccc21)CO3` (single isomer, unassigned) [Compound 8], the results for the Ki in assay [1] (setting [3]) and in assay [1] (setting [4]) were 2.04 nM and 2.64 nM, respectively. Moreover, the AC50 in assay [2] (Homo sapiens, MOLP-8, 2 h) was determined as 1330 nM.
On to `C[C@@H]1[C@@H](C)C/C=C/C(CO)N2CC[C@H]2CN2C[C@@]3(CCCc4cc(Cl)ccc43)COc3ccc(cc32)C(=O)NS1(=O)=O` (single isomer, unassigned) [Compound 10], for which, in assay [1] (setting [3]), the Ki worked out at 2.65 nM. Besides, in assay [2] (Homo sapiens, MOLP-8, 2 h), the AC50 came to 1490 nM.
Take `COC[C@H]1/C=C/C[C@@H](C)[C@@H](C)S(=O)(=O)NC(=O)c2ccc3c(c2)N(C[C@@H]2CCN21)C[C@@]1(CCCc2cc(Cl)ccc21)CO3` [Compound 4]: the Ki in assay [1] (setting [3]) was found to be 1.98 nM; in assay [1] (setting [4]), 3.15 nM. Further, the half-maximal activity concentration (AC50) in assay [2] (Homo sapiens, MOLP-8, 2 h) was determined as 740 nM.
The like results for `COC[C@@H]1/C=C/C[C@@H](C)[C@@H](C)S(=O)(=O)NC(=O)c2ccc3c(c2)N(C[C@@H]2CCN21)C[C@@]1(CCCc2cc(Cl)ccc21)CO3` [Compound 7] were, in that order, 0.83 nM, 0.61 nM and 852 nM.
The like results for `C[C@@H]1[C@@H](C)C/C=C(\F)[C@H](CO)N2CC[C@H]2CN2C[C@@]3(CCCc4cc(Cl)ccc43)COc3ccc(cc32)C(=O)NS1(=O)=O` [Compound 9] were, in that order, 0.22 nM, 0.23 nM and 144 nM.
The like results for `C[C@@H]1[C@@H](C)C/C=C(\F)[C@H](COc2ccccn2)N2CC[C@H]2CN2C[C@@]3(CCCc4cc(Cl)ccc43)COc3ccc(cc32)C(=O)NS1(=O)=O` [Compound 11] were, in that order, 3.97 nM, 2.13 nM and 1490 nM.
`C[C@@H]1[C@@H](C)C/C=C(\F)[C@H](COc2ccccn2)N2CC[C@@H]2CN2C[C@@]3(CCCc4cc(Cl)ccc43)COc3ccc(cc32)C(=O)NS1(=O)=O` [Compound 12] showed an inhibitory constant (Ki) in assay [1] (setting [4]) of 2.15 nM. Moreover, the AC50 in assay [2] came out at 520 nM.
Take `COC[C@H]1/C(F)=C/C[C@H](C)[C@@H](C)S(=O)(=O)NC(=O)c2ccc3c(c2)N(C[C@@H]2CCN21)C[C@@]1(CCCc2cc(Cl)ccc21)CO3` [Compound 13]: the Ki was determined as 0.49 nM in assay [1] (setting [3]) and 0.51 nM in assay [1] (setting [4]). In assay [2] (Homo sapiens, MOLP-8, 2 h), the AC50 was 181 nM.
The like results for `CC(C)COC[C@H]1/C(F)=C/C[C@H](C)[C@@H](C)S(=O)(=O)NC(=O)c2ccc3c(c2)N(C[C@@H]2CCN21)C[C@@]1(CCCc2cc(Cl)ccc21)CO3` [Compound 15] were, in that order, 3.64 nM, 2.33 nM and 1860 nM.
In assay [1] (setting [3]), `CCOC[C@H]1/C(F)=C/C[C@H](C)[C@@H](C)S(=O)(=O)NC(=O)c2ccc3c(c2)N(C[C@@H]2CCN21)C[C@@]1(CCCc2cc(Cl)ccc21)CO3` [Compound 16] had an inhibitory constant (Ki) of 0.83 nM. Also, the AC50 in assay [2] (Homo sapiens, MOLP-8, 2 h) came out at 207 nM.
Take `C[C@@H]1[C@@H](C)C/C=C(\F)[C@H](COCC(=O)O)N2CC[C@H]2CN2C[C@@]3(CCCc4cc(Cl)ccc43)COc3ccc(cc32)C(=O)NS1(=O)=O` [Compound 17]: the Ki in assay [1] (setting [3]) was determined as 0.13 nM; in assay [1] (setting [4]) it was 0.17 nM. Besides, the AC50 in assay [2] (Homo sapiens, MOLP-8, 2 h) is 5990 nM.
The like results for `C[C@@H]1[C@@H](C)C/C=C(\F)[C@H](COCC(=O)N2CCOCC2)N2CC[C@H]2CN2C[C@@]3(CCCc4cc(Cl)ccc43)COc3ccc(cc32)C(=O)NS1(=O)=O` [Compound 18] were, in that order, 0.24 nM, 0.24 nM and 448 nM.
The like results for `C[C@@H]1[C@@H](C)C/C=C(\F)[C@H](COCC(=O)N2CC(F)(F)C2)N2CC[C@H]2CN2C[C@@]3(CCCc4cc(Cl)ccc43)COc3ccc(cc32)C(=O)NS1(=O)=O` [Compound 19] were, in that order, 0.43 nM, 0.36 nM and 302 nM.
The like results for `COCCCOC[C@H]1/C(F)=C/C[C@H](C)[C@@H](C)S(=O)(=O)NC(=O)c2ccc3c(c2)N(C[C@@H]2CCN21)C[C@@]1(CCCc2cc(Cl)ccc21)CO3` [Compound 22] were, in that order, 1.29 nM, 0.69 nM and 274 nM.
On to `C[C@@H]1[C@@H](C)C/C=C(\F)[C@H](COCCC2CCOCC2)N2CC[C@H]2CN2C[C@@]3(CCCc4cc(Cl)ccc43)COc3ccc(cc32)C(=O)NS1(=O)=O` [Compound 23], for which the values for the Ki in assay [1] (setting [3]) and in assay [1] (setting [4]) were 1.52 nM and 0.82 nM, respectively. For the same compound, the AC50 in assay [2] (Homo sapiens, MOLP-8, 2 h) was found to be 545 nM.
The like results for `Cc1nc(COC[C@H]2/C(F)=C/C[C@H](C)[C@@H](C)S(=O)(=O)NC(=O)c3ccc4c(c3)N(C[C@@H]3CCN32)C[C@@]2(CCCc3cc(Cl)ccc32)CO4)no1` [Compound 24] were, in that order, 0.63 nM, 0.47 nM and 234 nM.
The like results for `C[C@@H]1[C@@H](C)C/C=C(\F)[C@H](COCCCN2CCOCC2)N2CC[C@H]2CN2C[C@@]3(CCCc4cc(Cl)ccc43)COc3ccc(cc32)C(=O)NS1(=O)=O` [Compound 25] were, in that order, 0.2 nM, 0.21 nM and 231 nM.
The like results for `C[C@@H]1[C@@H](C)C/C=C(\F)[C@H](COCC2CCC2)N2CC[C@H]2CN2C[C@@]3(CCCc4cc(Cl)ccc43)COc3ccc(cc32)C(=O)NS1(=O)=O` [Compound 26] were, in that order, 4.72 nM, 2.87 nM and 2520 nM.
In assay [1] (setting [4]), `C[C@@H]1[C@@H](C)C/C=C(\F)[C@H](CF)N2CC[C@H]2CN2C[C@@]3(CCCc4cc(Cl)ccc43)COc3ccc(cc32)C(=O)NS1(=O)=O` [Compound 31] registered a Ki of 0.86 nM. In addition, the AC50 in assay [2] (Homo sapiens, MOLP-8, 2 h) came out at 512 nM.

For orientation: Ki means a measure of affinity in units of concentration, obtained from inhibition or displacement. A higher Ki goes with a looser hold on the target. Broadly, the AC50 is the concentration giving half of the maximal activity seen.

For the origin of these results see patent publication US20240067660A1, “MACROCYCLIC SPIROCYCLE DERIVATIVES AS MCL-1 INHIBITORS” (Janssen Pharmaceutica NV, priority 2019, published 2024).
